Series [1] has as its target T1, B. subtilis NaMN AT (yqeJ) (Bacillus subtilis, UniProt P54455).
T1 sequence (P54455 with tags, fused parts or gaps): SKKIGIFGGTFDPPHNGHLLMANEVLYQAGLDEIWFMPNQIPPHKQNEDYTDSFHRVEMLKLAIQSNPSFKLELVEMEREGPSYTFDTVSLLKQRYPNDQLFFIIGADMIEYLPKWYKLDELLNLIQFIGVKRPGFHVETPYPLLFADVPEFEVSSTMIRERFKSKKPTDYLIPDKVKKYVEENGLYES
Put plainly: Continuous coupled assay of the forward reaction (EnzChek pyrophosphate / purine nucleoside phosphorylase). On the set-up: made in house; host or cells: E. coli BL21(DE3), vector pML208 (modified pET16b). Format: biochemical. An excerpt: Continuous assay. A continuous assay to monitor the reaction in the forward direction was based upon the EnzChek pyrophosphate assay from Molecular Probes (Eugene Oreg.) In this assay, inorganic pyrophosphate produced in the forward reaction of yqeJ is cleaved by inorganic pyrophosphatase to phosphate, which is used by the second coupling enzyme, purine nucleoside phosphorylase (PNP), to convert the chromogenic substrate 2-amino-6-mercapto-7-methylpurine ribonucleoside (MESG) to ribose-1-phosphate and 2-amino-6-mercapto-7methylpurine (E360=11,000 M^−1cm^−1). The reaction conditions were 20 mM Hepes pH 7.5, 10 mM MgCl2, 0.2 mM MESG, 1 U PNP, 0.01 U inorganic pyrophosphatase, and 0.03 μg/mL yqeJ. The reaction volume was 125 μL and was carried out in a 96 well plate at room temperature using spectamax384 plus plate reader recording continuously at 360 nm (Molecular Devices, Sunnyvale Calif.). For the KM determinations, NaMN was varied from 25 to 500 μM with ATP held at 2 mM and ATP was varied from 50 to 1000 μM with NaMN held constant at 1 mM. All kinetic constants were determined from non-linear fits of the experimental data using the enzyme kinetic module of Sigmaplot 7.0 (SPSS, Inc. San Rafael Calif.). The reaction conditions were the same for the KM determinations for NMN except the MgCl2 concentration was increased to 50 mM and the yqeJ concentration was increased to 75 μg/mL due to the lower activity against this substrate. […] The data was fit to a model of substrate inhibition using the equation: v=Vmax/(1+KM/S+S/Ki). […] NMN was varied from 0.5 to 10 mM with ATP held constant at 0.6 mM. The kinetic constants of yqeJ using NMN and ATP substrates also was determined with a second coupled assay system, one coupling NAD production to its reduction by alcohol dehyrogenase. This assay was described by Balducci et al (Balducci et al, 1995a) and has been used to characterize other NMN ATase. Using this assay, very similar values of KM and Vmax for NMN were obtained as was determined with the PNP coupled assay described above. The alcohol dehyrogenase coupled assay was not suitable to assays NaMN as a substrate, presumably because NaAD is not a good substrate for alcohol dehydrogenase.

In series [2] the target is T1, B. subtilis NaMN AT (yqeJ). Put plainly: Back reaction coupled enzyme assay (hexokinase / glucose-6-phosphate dehydrogenase). The text has this: The back reaction for yqeJ NaMN AT was monitored using the coupled enzyme assay of hexokinase and glucose-6-phosphate dehydrogenase (from yeast). […] The ATP is then used by hexokinase to phosphorylate glucose to give glucose-6-phosphate and ADP. Glucose-6-phosphate is oxidized to 6-phospho-glucono-δ-lactone by glucose-6-phosphate dehydrogenase and NADP is reduced to NADPH. The assay is followed by the absorbance of NADPH at 340 nm. Glucose-6-phosphate dehydrogenase from baker's yeast was used because this enzyme prefers NADP to NAD as a co-substrate. Assay conditions were: 20 mM HEPES pH 7.5, 50 mM MgCl2, 1 mM NaPPi, 10 mM KCl, 5 U hexokinase, 5 U glucose-6-phosphate dehydrogenase, 1 mM glucose, 0.5 mM NADP+.

Series [3] deals with T2, yqeJ NaMN AT (Bacillus subtilis, UniProt P54455).
T2 construct: made in house; host or cells: E. coli BL21(DE3), vector pML208 (modified pET16b)
Put plainly: Discontinuous HPLC adenylyl transferase assay. Format: biochemical. As to conditions: 30 minutes, 37° C. Here is the method: FIGS. 3A, 3B, 3C and 3D provides the results of HPLC analysis of yqeJ NaMN AT adenylyl transferase activity. 0.36 mg/ml yqeJ NaMN AT was incubated with 1 mM ATP and 1 mM NaMN (3A) or 1 mM NMN (3B) for 30 minutes.
Discontinuous HPLC assay. The discontinuous HPLC assay is based upon the assays published by Mehl et al. (12) and Balducci et al. (18). Reaction conditions were 20 mM Hepes, pH 7.4, 10 mM MgCl2, and 0.36 or 0.18 mg/ml yqeJ protein incubated at 37° C. For the forward reaction, the incubations contained 1 mM ATP and 1 mM NaMN or NMN. […] The reactants and products were separated by chromatography on a 3.9×150 mm C18 column (Novapack 5 μm, Waters Inc). Buffer A 100 mM potassium phosphate pH 7.5. Buffer B 100 mM potassium phosphate pH 7.5 in 20% MeOH. The elution conditions were: 0 to 3 min in 100% A, 3.0 to 3.1 min to 100% B, 3.1 to 7 min 100% B. The absorbance of reactants and products was detected at 254 nm.

Substrate in series [4]: O=P(O)(O)OP(=O)(O)O
Put plainly: purified protein, by the assay type. As to conditions: other: back reaction; at saturating concentrations of NaAD (500 μM); pH 7.5.

Substrate in series [5]: NC(=O)c1ccc[n+]([C@@H]2O[C@H](COP(=O)([O-])OP(=O)(O)OC[C@H]3O[C@@H](n4cnc5c(N)ncnc54)[C@H](O)[C@@H]3O)[C@@H](O)[C@H]2O)c1
Put plainly: purified protein, by the assay type. The following applies: other: back reaction; at subsaturating concentrations of PPi (1 mM); pH 7.5.

Substrate in series [6]: NC(=O)c1ccc[n+]([C@@H]2O[C@H](COP(=O)([O-])O)[C@@H](O)[C@H]2O)c1
The series is described as follows: Continuous coupled assay of the forward reaction (EnzChek pyrophosphate / purine nucleoside phosphorylase). As to conditions: other: forward reaction; mononucleotide substrate varied, ATP held constant (2 mM for NaMN, 0.6 mM for NMN); NMN fit to substrate inhibition equation; pH 7.5. In kind it is biochemical, Bacillus subtilis. The text has this: Continuous assay. A continuous assay to monitor the reaction in the forward direction was based upon the EnzChek pyrophosphate assay from Molecular Probes (Eugene Oreg.) In this assay, inorganic pyrophosphate produced in the forward reaction of yqeJ is cleaved by inorganic pyrophosphatase to phosphate, which is used by the second coupling enzyme, purine nucleoside phosphorylase (PNP), to convert the chromogenic substrate 2-amino-6-mercapto-7-methylpurine ribonucleoside (MESG) to ribose-1-phosphate and 2-amino-6-mercapto-7methylpurine (E360=11,000 M^−1cm^−1). The reaction conditions were 20 mM Hepes pH 7.5, 10 mM MgCl2, 0.2 mM MESG, 1 U PNP, 0.01 U inorganic pyrophosphatase, and 0.03 μg/mL yqeJ. The reaction volume was 125 μL and was carried out in a 96 well plate at room temperature using spectamax384 plus plate reader recording continuously at 360 nm (Molecular Devices, Sunnyvale Calif.). […] All kinetic constants were determined from non-linear fits of the experimental data using the enzyme kinetic module of Sigmaplot 7.0 (SPSS, Inc. San Rafael Calif.). […] The kinetic constants of yqeJ using NMN and ATP substrates also was determined with a second coupled assay system, one coupling NAD production to its reduction by alcohol dehyrogenase. […] Using this assay, very similar values of KM and Vmax for NMN were obtained as was determined with the PNP coupled assay described above. […]

Setting [7] is: forward reaction, at saturating concentrations of NaMN.
[8] abbreviates: back reaction, at subsaturating concentrations of PPi (1 mM).
Where [9] appears, read: forward reaction: 1 mM ATP and 1 mM substrate, 0.36 mg/ml yqeJ.

`Nc1ncnc2c1ncn2[C@@H]1O[C@H](COP(=O)(O)OP(=O)(O)OP(=O)(O)O)[C@@H](O)[C@H]1O` [ATP]: in series [1] (setting [7]), the Km stood at 135 µM and the Vmax came out at 10.1 ± 0.4 µmol/min/mg.

With `Nc1ncnc2c1ncn2[C@@H]1O[C@H](COP(=O)(O)OP(=O)(O)OC[C@H]2O[C@@H]([n+]3cccc(C(=O)O)c3)[C@H](O)[C@@H]2O)[C@@H](O)[C@H]1O` [NAAD, nicotinic acid adenine dinucleotide], in series [2] (setting [8]), the Km was 6.8 µM and the Vmax was determined as 2.8 ± 0.2 µmol/min/mg. Besides, the “preference (Vmax/KM ratio) for nicotinic acid over nicotinamide containing substrate” value in series [2] (reverse reaction, NaAD over NAD) is 2,000 to 1. The “conversion of substrate by yqeJ, detected by HPLC” value (“conversion of substrate by yqeJ” for short) in series [3] (reverse reaction: 1 mM sodium pyrophosphate and 0.5 mM substrate, 0.18 mg/ml yqeJ) is “converted to NaMN and ATP”.

Take `NC(=O)c1ccc[n+]([C@@H]2O[C@H](COP(=O)([O-])O)[C@@H](O)[C@H]2O)c1` [NMN, Nicotinamide Mononucleotide]: the “conversion of substrate by yqeJ” value in series [3] (setting [9]) was “a new peak that eluted with NAD”. This molecule showed a Ki in series [1] of 17 mM.

On to `O=C(O)c1ccc[n+]([C@@H]2O[C@H](COP(=O)(O)O)[C@@H](O)[C@H]2O)c1` [NaMN, nicotinic acid mononucleotide], for which the “conversion of substrate by yqeJ” value in series [3] (setting [9]) is “formation of a new peak as detected by HPLC that eluted with the NaAD standard”. Further, the “preference (Vmax/KM ratio) for nicotinic acid over nicotinamide containing substrate” value in series [1] (forward reaction, NaMN over NMN) is recorded as 12,900 to 1. In series [1] (forward reaction, mononucleotide substrate varied, ATP held constant), the maximum rate (Vmax) is 11.1 ± 0.7 µmol/min/mg. Moreover, in series [1] (forward reaction, mononucleotide substrate varied, ATP held constant (2 mM for NaMN, 0.6 mM for NMN), NMN fit to substrate inhibition equation), the Km was found to be 43 µM.

B1: B. subtilis NaMN AT (yqeJ) (Bacillus subtilis subsp. subtilis str. 168) (protein)
chain: SKKIGIFGGTFDPPHNGHLLMANEVLYQAGLDEIWFMPNQIPPHKQNEDYTDSFHRVEMLKLAIQSNPSFKLELVEMEREGPSYTFDTVSLLKQRYPNDQLFFIIGADMIEYLPKWYKLDELLNLIQFIGVKRPGFHVETPYPLLFADVPEFEVSSTMIRERFKSKKPTDYLIPDKVKKYVEENGLYES
notes: made in house; host or cells: E. coli BL21(DE3), vector pML208 (modified pET16b)
As for B1, the Km was determined as 4200 ± 600 µM in series [4], 1700 ± 200 µM in series [5] and 2300 ± 200 µM in series [6]. The Vmax in series [5] worked out at 0.34 µmol/min/mg; in series [6] it was 0.054 µmol/min/mg.

Broadly, the Km is the concentration of substrate that gives half-maximal velocity. Usually Vmax stands for the top rate of the reaction or transport when substrate is in excess. The term Ki denotes a measure of affinity in units of concentration, obtained from inhibition or displacement. Higher therefore signals lower affinity.

(Values after US7155346B2, “Crystal structure of yqeJ and uses thereof” (Wyeth, priority 2001, dated 2006).)
